Results as given in the supplement of paper PMC10307832.

What was measured:
Assay in all cases: relative viability (nuclei count vs DMSO), 5 days (fraction); higher = more cells survive
Erlotinib + Alpelisib = compound: C#Cc1cccc(Nc2ncnc3cc(OCCOC)c(OCCOC)cc23)c1 [Erlotinib] + Cc1nc(NC(=O)N2CCC[C@H]2C(N)=O)sc1-c1ccnc(C(C)(C)C(F)(F)F)c1 [Alpelisib] (partner 2 µM)
Procedure, shortened: (§1)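 Lung cancer cell lines in 1536-well plates were dosed by pin tool the day after seeding, either with one drug alone or with a fixed anchor-drug dose plus five library-drug doses (not always all listed) in √10 steps. After 5 days, cells were fixed and their nuclei stained in one step (final 0.05% Triton X-100, 1% formaldehyde, 1 ug/ml Hoechst), then counted on 4× images. Relative viability is the nuclei count in treated wells divided by that in vehicle wells. Values are medians of duplicate plates.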

AT9283 + Trametinib = compound: O=C(Nc1c[nH]nc1-c1nc2ccc(CN3CCOCC3)cc2[nH]1)NC1CC1 [AT9283] + CC(=O)Nc1cccc(-n2c(=O)n(C3CC3)c(=O)c3c(Nc4ccc(I)cc4F)n(C)c(=O)c(C)c32)c1 [Trametinib] (partner 0.02 µM)
Procedure, shortened: as §1

AT9283 + Alpelisib = compound: O=C(Nc1c[nH]nc1-c1nc2ccc(CN3CCOCC3)cc2[nH]1)NC1CC1 [AT9283] + Cc1nc(NC(=O)N2CCC[C@H]2C(N)=O)sc1-c1ccnc(C(C)(C)C(F)(F)F)c1 [Alpelisib] (partner 2 µM)
Procedure, shortened: as §1

Erlotinib + Luminespib = compound: C#Cc1cccc(Nc2ncnc3cc(OCCOC)c(OCCOC)cc23)c1 [Erlotinib] + CCNC(=O)c1noc(-c2cc(C(C)C)c(O)cc2O)c1-c1ccc(CN2CCOCC2)cc1 [Luminespib] (partner 0.01 µM)
Procedure, shortened: as §1

Erlotinib + Foretinib = compound: C#Cc1cccc(Nc2ncnc3cc(OCCOC)c(OCCOC)cc23)c1 [Erlotinib] + COc1cc2c(Oc3ccc(NC(=O)C4(C(=O)Nc5ccc(F)cc5)CC4)cc3F)ccnc2cc1OCCCN1CCOCC1 [Foretinib] (partner 0.25 µM)
Procedure, shortened: as §1

201T
relative viability (Erlotinib + Alpelisib; first compound 0.02 µM): 0.999 | relative viability (Erlotinib + Alpelisib; first compound 0.2 µM): 0.968 | relative viability (Erlotinib + Alpelisib; first compound 0.6325 µM): 0.966 | relative viability (AT9283 + Trametinib; first compound 0.003 µM): 0.734 | relative viability (AT9283 + Trametinib; first compound 0.03 µM): 0.753 | relative viability (AT9283 + Trametinib; first compound 0.09487 µM): 0.388 | relative viability (AT9283 + Trametinib; first compound 0.3 µM): 0.338 | relative viability (AT9283 + Alpelisib; first compound 0.003 µM): 1.02 | relative viability (AT9283 + Alpelisib; first compound 0.03 µM): 1.08 | relative viability (AT9283 + Alpelisib; first compound 0.09487 µM): 0.525 | relative viability (AT9283 + Alpelisib; first compound 0.3 µM): 0.445 | relative viability (Erlotinib + Luminespib; first compound 0.02 µM): 1.01 | relative viability (Erlotinib + Luminespib; first compound 0.2 µM): 1.03 | relative viability (Erlotinib + Luminespib; first compound 0.6325 µM): 1.06 | relative viability (Erlotinib + Luminespib; first compound 2 µM): 0.874 | relative viability (Erlotinib + Foretinib; first compound 0.6325 µM): 1.17 | relative viability (Erlotinib + Foretinib; first compound 2 µM): 0.888

A549
relative viability (Erlotinib + Alpelisib; first compound 0.02 µM): 0.709 | relative viability (Erlotinib + Alpelisib; first compound 0.2 µM): 0.68 | relative viability (Erlotinib + Alpelisib; first compound 0.6325 µM): 0.728 | relative viability (Erlotinib + Alpelisib; first compound 2 µM): 0.595 | relative viability (AT9283 + Alpelisib; first compound 0.003 µM): 0.973 | relative viability (AT9283 + Alpelisib; first compound 0.03 µM): 0.0793 | relative viability (AT9283 + Alpelisib; first compound 0.09487 µM): 0.0636 | relative viability (AT9283 + Alpelisib; first compound 0.3 µM): 0.068 | relative viability (Erlotinib + Foretinib; first compound 0.02 µM): 0.795 | relative viability (Erlotinib + Foretinib; first compound 0.2 µM): 0.947 | relative viability (Erlotinib + Foretinib; first compound 0.6325 µM): 0.902 | relative viability (Erlotinib + Foretinib; first compound 2 µM): 0.786

A-427
relative viability (Erlotinib + Alpelisib; first compound 0.02 µM): 1 | relative viability (Erlotinib + Alpelisib; first compound 0.2 µM): 1.04 | relative viability (Erlotinib + Alpelisib; first compound 0.6325 µM): 1.12 | relative viability (Erlotinib + Alpelisib; first compound 2 µM): 1.05 | relative viability (AT9283 + Trametinib; first compound 0.003 µM): 0.706 | relative viability (AT9283 + Trametinib; first compound 0.03 µM): 0.501 | relative viability (AT9283 + Trametinib; first compound 0.09487 µM): 0.334 | relative viability (AT9283 + Trametinib; first compound 0.3 µM): 0.396 | relative viability (AT9283 + Alpelisib; first compound 0.003 µM): 1.04 | relative viability (AT9283 + Alpelisib; first compound 0.03 µM): 1.01 | relative viability (AT9283 + Alpelisib; first compound 0.09487 µM): 0.209 | relative viability (AT9283 + Alpelisib; first compound 0.3 µM): 0.176 | relative viability (Erlotinib + Luminespib; first compound 0.02 µM): 1.18 | relative viability (Erlotinib + Luminespib; first compound 0.2 µM): 0.932 | relative viability (Erlotinib + Luminespib; first compound 0.6325 µM): 0.857 | relative viability (Erlotinib + Luminespib; first compound 2 µM): 0.76 | relative viability (Erlotinib + Foretinib; first compound 0.02 µM): 1.17 | relative viability (Erlotinib + Foretinib; first compound 0.2 µM): 1.01 | relative viability (Erlotinib + Foretinib; first compound 0.6325 µM): 1.15 | relative viability (Erlotinib + Foretinib; first compound 2 µM): 1.02

ABC-1
relative viability (Erlotinib + Alpelisib; first compound 0.02 µM): 1.09 | relative viability (Erlotinib + Alpelisib; first compound 0.2 µM): 1.2 | relative viability (Erlotinib + Alpelisib; first compound 0.6325 µM): 1.01 | relative viability (Erlotinib + Alpelisib; first compound 2 µM): 0.92 | relative viability (AT9283 + Alpelisib; first compound 0.003 µM): 0.957 | relative viability (AT9283 + Alpelisib; first compound 0.03 µM): 0.238 | relative viability (AT9283 + Alpelisib; first compound 0.09487 µM): 0.269 | relative viability (AT9283 + Alpelisib; first compound 0.3 µM): 0.355 | relative viability (Erlotinib + Luminespib; first compound 0.2 µM): 0.684 | relative viability (Erlotinib + Luminespib; first compound 0.6325 µM): 0.771 | relative viability (Erlotinib + Luminespib; first compound 2 µM): 0.601 | relative viability (Erlotinib + Foretinib; first compound 0.02 µM): 1.03 | relative viability (Erlotinib + Foretinib; first compound 0.2 µM): 0.547 | relative viability (Erlotinib + Foretinib; first compound 0.6325 µM): 1.06 | relative viability (Erlotinib + Foretinib; first compound 2 µM): 0.818

BEN
relative viability (Erlotinib + Alpelisib; first compound 0.02 µM): 1.08 | relative viability (Erlotinib + Alpelisib; first compound 0.2 µM): 1.01 | relative viability (Erlotinib + Alpelisib; first compound 0.6325 µM): 1.26 | relative viability (AT9283 + Trametinib; first compound 0.003 µM): 0.838 | relative viability (AT9283 + Trametinib; first compound 0.03 µM): 1.17 | relative viability (AT9283 + Trametinib; first compound 0.09487 µM): 0.568 | relative viability (AT9283 + Trametinib; first compound 0.3 µM): 0.368 | relative viability (AT9283 + Alpelisib; first compound 0.003 µM): 0.969 | relative viability (AT9283 + Alpelisib; first compound 0.03 µM): 0.987 | relative viability (AT9283 + Alpelisib; first compound 0.09487 µM): 0.23 | relative viability (AT9283 + Alpelisib; first compound 0.3 µM): 0.245 | relative viability (Erlotinib + Luminespib; first compound 0.02 µM): 0.369 | relative viability (Erlotinib + Luminespib; first compound 0.2 µM): 0.34 | relative viability (Erlotinib + Luminespib; first compound 0.6325 µM): 0.442 | relative viability (Erlotinib + Luminespib; first compound 2 µM): 0.693 | relative viability (Erlotinib + Foretinib; first compound 0.02 µM): 0.679 | relative viability (Erlotinib + Foretinib; first compound 0.2 µM): 0.663 | relative viability (Erlotinib + Foretinib; first compound 0.6325 µM): 1 | relative viability (Erlotinib + Foretinib; first compound 2 µM): 0.872

CAL-12T
relative viability (Erlotinib + Alpelisib; first compound 0.02 µM): 1.16 | relative viability (Erlotinib + Alpelisib; first compound 0.2 µM): 0.859 | relative viability (Erlotinib + Alpelisib; first compound 0.6325 µM): 0.56 | relative viability (Erlotinib + Alpelisib; first compound 2 µM): 0.371 | relative viability (AT9283 + Trametinib; first compound 0.003 µM): 0.421 | relative viability (AT9283 + Trametinib; first compound 0.03 µM): 0.399 | relative viability (AT9283 + Trametinib; first compound 0.09487 µM): 0.211 | relative viability (AT9283 + Trametinib; first compound 0.3 µM): 0.152 | relative viability (AT9283 + Alpelisib; first compound 0.003 µM): 1.27 | relative viability (AT9283 + Alpelisib; first compound 0.03 µM): 0.956 | relative viability (AT9283 + Alpelisib; first compound 0.09487 µM): 0.362 | relative viability (AT9283 + Alpelisib; first compound 0.3 µM): 0.296 | relative viability (Erlotinib + Luminespib; first compound 0.02 µM): 0.3 | relative viability (Erlotinib + Luminespib; first compound 0.2 µM): 0.32 | relative viability (Erlotinib + Luminespib; first compound 0.6325 µM): 0.377 | relative viability (Erlotinib + Luminespib; first compound 2 µM): 0.226 | relative viability (Erlotinib + Foretinib; first compound 0.02 µM): 1.04 | relative viability (Erlotinib + Foretinib; first compound 0.2 µM): 1.04 | relative viability (Erlotinib + Foretinib; first compound 0.6325 µM): 0.513 | relative viability (Erlotinib + Foretinib; first compound 2 µM): 0.484

COR-L23
relative viability (Erlotinib + Alpelisib; first compound 0.02 µM): 0.84 | relative viability (Erlotinib + Alpelisib; first compound 0.2 µM): 0.719 | relative viability (Erlotinib + Alpelisib; first compound 0.6325 µM): 0.836 | relative viability (Erlotinib + Alpelisib; first compound 2 µM): 0.553 | relative viability (AT9283 + Trametinib; first compound 0.003 µM): 0.668 | relative viability (AT9283 + Trametinib; first compound 0.03 µM): 0.245 | relative viability (AT9283 + Trametinib; first compound 0.09487 µM): 0.166 | relative viability (AT9283 + Trametinib; first compound 0.3 µM): 0.161 | relative viability (AT9283 + Alpelisib; first compound 0.003 µM): 0.811 | relative viability (AT9283 + Alpelisib; first compound 0.03 µM): 0.23 | relative viability (AT9283 + Alpelisib; first compound 0.09487 µM): 0.117 | relative viability (AT9283 + Alpelisib; first compound 0.3 µM): 0.109 | relative viability (Erlotinib + Luminespib; first compound 0.02 µM): 0.686 | relative viability (Erlotinib + Luminespib; first compound 0.2 µM): 0.637 | relative viability (Erlotinib + Luminespib; first compound 0.6325 µM): 0.693 | relative viability (Erlotinib + Luminespib; first compound 2 µM): 0.588 | relative viability (Erlotinib + Foretinib; first compound 0.02 µM): 1.11 | relative viability (Erlotinib + Foretinib; first compound 0.2 µM): 0.947 | relative viability (Erlotinib + Foretinib; first compound 0.6325 µM): 1.18 | relative viability (Erlotinib + Foretinib; first compound 2 µM): 0.928

COR-L 105
relative viability (Erlotinib + Alpelisib; first compound 0.02 µM): 1.09 | relative viability (Erlotinib + Alpelisib; first compound 0.2 µM): 0.659 | relative viability (Erlotinib + Alpelisib; first compound 0.6325 µM): 0.477 | relative viability (Erlotinib + Alpelisib; first compound 2 µM): 0.243 | relative viability (AT9283 + Trametinib; first compound 0.003 µM): 0.399 | relative viability (AT9283 + Trametinib; first compound 0.03 µM): 0.395 | relative viability (AT9283 + Trametinib; first compound 0.09487 µM): 0.328 | relative viability (AT9283 + Trametinib; first compound 0.3 µM): 0.297 | relative viability (AT9283 + Alpelisib; first compound 0.003 µM): 1.49 | relative viability (AT9283 + Alpelisib; first compound 0.03 µM): 0.342 | relative viability (AT9283 + Alpelisib; first compound 0.09487 µM): 0.278 | relative viability (AT9283 + Alpelisib; first compound 0.3 µM): 0.333 | relative viability (Erlotinib + Luminespib; first compound 0.02 µM): 0.779 | relative viability (Erlotinib + Luminespib; first compound 0.2 µM): 0.472 | relative viability (Erlotinib + Luminespib; first compound 0.6325 µM): 0.378 | relative viability (Erlotinib + Luminespib; first compound 2 µM): 0.216 | relative viability (Erlotinib + Foretinib; first compound 0.02 µM): 0.81 | relative viability (Erlotinib + Foretinib; first compound 0.2 µM): 0.461 | relative viability (Erlotinib + Foretinib; first compound 0.6325 µM): 0.487 | relative viability (Erlotinib + Foretinib; first compound 2 µM): 0.248

Calu-6
relative viability (Erlotinib + Alpelisib; first compound 0.02 µM): 0.983 | relative viability (Erlotinib + Alpelisib; first compound 0.2 µM): 1.06 | relative viability (Erlotinib + Alpelisib; first compound 0.6325 µM): 1.04 | relative viability (Erlotinib + Alpelisib; first compound 2 µM): 0.909 | relative viability (AT9283 + Alpelisib; first compound 0.003 µM): 0.986 | relative viability (AT9283 + Alpelisib; first compound 0.03 µM): 0.23 | relative viability (AT9283 + Alpelisib; first compound 0.09487 µM): 0.26 | relative viability (AT9283 + Alpelisib; first compound 0.3 µM): 0.246 | relative viability (Erlotinib + Foretinib; first compound 0.02 µM): 0.94 | relative viability (Erlotinib + Foretinib; first compound 0.2 µM): 0.838 | relative viability (Erlotinib + Foretinib; first compound 0.6325 µM): 0.886 | relative viability (Erlotinib + Foretinib; first compound 2 µM): 0.803
